# Reference: US12227488B2, “Small molecule degraders of Helios and methods of use” (DANA-FARBER CANCER INSTITUTE, INC., priority 2018, dated 2025)
# Assays:
# [1] = tested on: IKZF2; experiment: Cellular degradation assay, eGFP-IKZF2Δ fusion with mCherry reporter in Flp-In 293 cells; type: cell-based; details: 5 h incubation, n=1
# Protocol: (§1) IKZF1Δ, IKZF2Δ, GSPT1 and SALL4 ZnF1-2 were subcloned into mammalian pcDNA5/FRT Vector (Ampicillin and Hygromycin B resistant) modified to contain MCS-eGFP-P2A-mCherry. […] Following 2-3 passage cycle, FACS (FACSAria™ II, BD) was used to enrich for cells expressing eGFP and mCherry. Cells stably expressing the IKZF1Δ, IKZF2Δ, GSPT1 or SALL4 Znf1-2 GFP fusions with mCherry reporter were seeded at 30-50% confluency in 384-well plates with 50 μL FluoroBrite™ DMEM media (Thermo Fisher Scientific, A18967) containing 10% FBS per well a day before compound treatment. Compound titrations were dispensed using a D300e Digital Dispenser (HP), normalized to 0.5% DMSO, and incubated with cells for 5 hours.
# (§2) The resulting images were analyzed using CellProfiler™. A series of image analysis steps (‘image analysis pipeline’) was constructed. First, the red and green channels were aligned and cropped to target the middle of each well (to avoid analysis of heavily clumped cells at the edges), and a background illumination function was calculated for both red and green channels of each well individually and subtracted to correct for illumination variations across the 384-well plate from various sources of error. An additional step was then applied to the green channel to suppress the analysis of large auto fluorescent artifacts and enhance the analysis of cell specific fluorescence by way of selecting for objects under a given size, 30 A.U., and with a given shape, speckles. mCherry-positive cells were then identified in the red channel filtering for objects between 8-60 pixels in diameter and using intensity to distinguish between clumped objects. The green channel was then segmented into GFP positive and negative areas and objects were labeled as GFP positive if at least 40% of it overlapped with a GFP positive area. The fraction of GFP-positive cells/mCherry-positive cells in each well was then calculated, and the green and red images were rescaled for visualization.
# (§3) The degradation assay was performed as described above. […] Degradation was measured after 5 h of compound treatment and the concentrations that lead to half degradation at 5 h (DC50,5 h) were calculated using the nonlinear fit variable slope model (GraphPad Software).
# [2] = target: T1, IKZF1 (Homo sapiens, UniProt Q13422); experiment: Cellular degradation assay, eGFP-IKZF1Δ fusion with mCherry reporter in Flp-In 293 cells; type: cell-based; details: 5 h incubation, n=1
# T1 construct: expressed in transfected cells; host or cells: Flp-In 293
# Protocol: as §1, §2, §3
# [3] = target: T2, CRBN and Helios (IKZF2) (Homo sapiens, UniProt Q96SW2+Q9UKS7); experiment: TR-FRET dimerization assay (CRBN-IKZF2 ternary complex formation); type: binding; details: n=1
# T2 construct: His (N); Strep (N)
# Protocol: A focused library of imide analogs was synthesized and assessed for their ability to induce dimerization between CRBN and Helios in a time-resolved fluorescence energy transfer (TR-FRET) assay (FIG. 1A).
# Prior to TR-FRET measurements being conducted, the reactions were incubated for 15 min at rt. […] The TR-FRET signal of each data point was extracted by calculating the 520/490 nm ratios. Data from single measurements (n=1), each calculated as an average of at least three technical replicates per well per experiment are presented in Table 1.
# BODIPY-labeled CRBN in complex with Damage Specific DNA Binding Protein 1 (DDB1) harboring an internal deletion of the flexible BPB propeller (DDB1AB-CRBN) and in vitro biotinylated IKZF2 were treated with increasing concentrations of the indicated compounds in the presence of tracer amounts of Terbium-Streptavidin (Tb-SA). Compound-induced recruitment of IKZF2 to CRBN was quantified following the 520/490 TR-FRET ratio using a PHERAstar® plate reader (BMG) utilizing two synchronized PMTs to reduce background.
# [4] = compound concentration 2.00E−05
# [5] = compound concentration 2.00E−06
# [6] = compound concentration 2.00E−07
# [7] = compound concentration 6.6667E−05
# [8] = compound concentration 6.6667E−06
# [9] = compound concentration 6.6667E−07 (667 nM)
# T2 sequence (Q96SW2 whole entry): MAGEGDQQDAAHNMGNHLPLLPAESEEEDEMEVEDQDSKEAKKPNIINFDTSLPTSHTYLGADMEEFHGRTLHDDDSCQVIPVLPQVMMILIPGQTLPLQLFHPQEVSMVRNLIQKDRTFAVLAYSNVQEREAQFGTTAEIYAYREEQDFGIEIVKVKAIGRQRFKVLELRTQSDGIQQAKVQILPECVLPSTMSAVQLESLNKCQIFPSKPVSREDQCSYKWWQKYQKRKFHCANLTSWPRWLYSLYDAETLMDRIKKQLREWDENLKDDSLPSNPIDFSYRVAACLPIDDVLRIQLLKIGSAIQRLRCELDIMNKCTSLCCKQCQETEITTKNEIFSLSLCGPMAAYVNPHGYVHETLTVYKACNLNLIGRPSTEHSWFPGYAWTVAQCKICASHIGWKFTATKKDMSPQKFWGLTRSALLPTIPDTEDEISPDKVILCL
# T2 sequence (Q9UKS7 whole entry): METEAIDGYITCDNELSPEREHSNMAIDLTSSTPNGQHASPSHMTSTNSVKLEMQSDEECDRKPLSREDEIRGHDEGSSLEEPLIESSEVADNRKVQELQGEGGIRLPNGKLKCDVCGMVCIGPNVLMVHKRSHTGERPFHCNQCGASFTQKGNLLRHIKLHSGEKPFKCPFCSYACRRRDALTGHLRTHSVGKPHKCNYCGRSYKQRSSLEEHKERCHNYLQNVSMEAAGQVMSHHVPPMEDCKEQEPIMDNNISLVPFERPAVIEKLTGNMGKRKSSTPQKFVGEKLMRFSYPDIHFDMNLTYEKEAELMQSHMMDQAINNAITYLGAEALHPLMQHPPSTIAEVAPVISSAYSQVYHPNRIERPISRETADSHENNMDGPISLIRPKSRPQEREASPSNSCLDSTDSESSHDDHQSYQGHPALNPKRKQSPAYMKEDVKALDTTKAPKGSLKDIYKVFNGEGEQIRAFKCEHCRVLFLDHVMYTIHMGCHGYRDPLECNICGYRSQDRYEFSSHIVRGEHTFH
# T1 sequence (Q13422 83-213 isoform Q13422-7 limits assumed): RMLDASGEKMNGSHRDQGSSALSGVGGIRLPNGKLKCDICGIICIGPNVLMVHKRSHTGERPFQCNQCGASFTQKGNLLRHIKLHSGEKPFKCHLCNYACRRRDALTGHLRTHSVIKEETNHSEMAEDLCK
# T1 sequence (Q96SW2 whole entry partner, the tested form may be a part): as the sequence (Q96SW2 whole entry) above
# T1 sequence (Q16531 2-1140 partner limits assumed): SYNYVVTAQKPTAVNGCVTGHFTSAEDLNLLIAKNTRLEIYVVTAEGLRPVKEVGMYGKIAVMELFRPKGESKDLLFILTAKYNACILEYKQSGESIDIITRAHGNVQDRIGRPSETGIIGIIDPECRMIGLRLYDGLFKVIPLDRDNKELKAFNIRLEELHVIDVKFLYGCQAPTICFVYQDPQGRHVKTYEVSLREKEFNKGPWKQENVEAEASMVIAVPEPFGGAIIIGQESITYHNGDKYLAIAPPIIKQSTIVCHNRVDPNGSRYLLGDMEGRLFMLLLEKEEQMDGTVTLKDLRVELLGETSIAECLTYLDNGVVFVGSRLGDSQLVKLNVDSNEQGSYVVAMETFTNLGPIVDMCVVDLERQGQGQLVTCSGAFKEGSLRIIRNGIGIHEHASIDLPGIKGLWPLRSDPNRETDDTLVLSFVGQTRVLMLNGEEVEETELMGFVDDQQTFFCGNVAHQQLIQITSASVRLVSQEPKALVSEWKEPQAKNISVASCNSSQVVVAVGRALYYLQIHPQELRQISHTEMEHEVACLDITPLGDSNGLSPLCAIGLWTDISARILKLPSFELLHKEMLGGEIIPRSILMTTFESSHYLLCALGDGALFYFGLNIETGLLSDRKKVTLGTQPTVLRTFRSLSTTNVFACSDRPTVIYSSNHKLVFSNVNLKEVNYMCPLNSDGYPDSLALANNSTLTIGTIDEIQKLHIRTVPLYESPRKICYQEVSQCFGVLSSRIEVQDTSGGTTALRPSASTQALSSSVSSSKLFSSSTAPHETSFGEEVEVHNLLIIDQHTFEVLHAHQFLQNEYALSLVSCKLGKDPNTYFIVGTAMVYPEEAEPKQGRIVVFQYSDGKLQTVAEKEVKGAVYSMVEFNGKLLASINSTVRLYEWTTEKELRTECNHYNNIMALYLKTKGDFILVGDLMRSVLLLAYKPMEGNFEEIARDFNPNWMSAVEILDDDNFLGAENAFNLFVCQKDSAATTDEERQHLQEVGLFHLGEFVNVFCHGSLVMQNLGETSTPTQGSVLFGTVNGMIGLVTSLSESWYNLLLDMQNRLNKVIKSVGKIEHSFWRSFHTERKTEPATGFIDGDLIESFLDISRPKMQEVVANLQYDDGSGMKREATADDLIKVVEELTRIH
Structure (SMILES),"IKZF2 GFP/RFP Relative Abundance [1, 4]","IKZF2 GFP/RFP Relative Abundance [1, 5]","IKZF2 GFP/RFP Relative Abundance [1, 6]","IKZF1 GFP/RFP Relative Abundance [2, 4]","IKZF1 GFP/RFP Relative Abundance [2, 5]","IKZF1 GFP/RFP Relative Abundance [2, 6]","TR-FRET-IKZF2 (Normalized to CC-885) [3, 7]","TR-FRET-IKZF2 (Normalized to CC-885) [3, 8]","TR-FRET-IKZF2 (Normalized to CC-885) [3, 9]"
"Cc1ccc(CNC(=O)c2cccc(NC3=CC(=O)N(C4CCC(=O)NC4=O)C3=O)c2)cc1Cl (stereo not drawn) [Compound 122, N-(3-chloro-4-methylbenzyl)-3-((1-(2,6-dioxopiperidin-3-yl)-2,5-dioxo-2,5-dihydro-1H-pyrrol-3-yl)amino)benzamide]",0.738,0.789,0.833,0.076,0.088,0.096,0.715,0.628,0.469
"Cc1ccc(NC(=O)N[C@H](C)c2cccc(NC3=CC(=O)N(C4CCC(=O)NC4=O)C3=O)c2)cc1Cl (stereo partly drawn) [Compound 70, 1-(3-chloro-4-methylphenyl)-3-((1R)-1-(3-((1-(2,6-dioxopiperidin-3-yl)-2,5-dioxo-2,5-dihydro-1H-pyrrol-3-yl)amino)phenyl)ethyl)urea]",0.021,0.057,0.031,0.076,0.080,0.103,1.531,1.409,1.271
"Cc1ccc(N(C)C(=O)CCc2cccc(NC3=CC(=O)N(C4CCC(=O)NC4=O)C3=O)c2)cc1Cl (stereo not drawn) [Compound 127, N-(3-chloro-4-methylphenyl)-3-(3-((1-(2,6-dioxopiperidin-3-yl)-2,5-dioxo-2,5-dihydro-1H-pyrrol-3-yl)amino)phenyl)-N-methylpropanamide]",0.266,0.047,0.060,0.313,0.079,0.079,1.390,1.362,1.195
"Cc1ccc(NC(=O)NCc2cc(NC(=O)N(C)C)cc(NC3=CC(=O)N(C4CCC(=O)NC4=O)C3=O)c2)cc1Cl (stereo not drawn) [Compound 112, 3-(3-((3-(3-chloro-4-methylphenyl)ureido)methyl)-5-((1-(2,6-dioxopiperidin-3-yl)-2,5-dioxo-2,5-dihydro-1H-pyrrol-3-yl)amino)phenyl)-1,1-dimethylurea]",1.081,1.047,1.034,0.726,0.949,1.002,0.048,0.035,0.035
"Cc1ccc(NC(=O)NCc2cc(NC3=CC(=O)N(C4CCC(=O)NC4=O)C3=O)ccc2OC(=O)N(C)C)cc1Cl (stereo not drawn) [Compound 95, 2-((3-(3-chloro-4-methylphenyl)ureido)methyl)-4-((1-(2,6-dioxopiperidin-3-yl)-2,5-dioxo-2,5-dihydro-1H-pyrrol-3-yl)amino)phenyl Dimethylcarbamate]",1.070,1.058,1.029,0.944,0.904,0.960,0.124,0.109,0.094
"Cc1ccc(NC(=O)N2CCc3ccc(NC4=CC(=O)N(C5CCC(=O)NC5=O)C4=O)cc3C2)cc1Cl (stereo not drawn) [Compound 109, N-(3-chloro-4-methylphenyl)-7-((1-(2,6-dioxopiperidin-3-yl)-2,5-dioxo-2,5-dihydro-1H-pyrrol-3-yl)amino)-3,4-dihydroisoquinoline-2(1H)-carboxamide]",0.563,0.313,0.539,0.189,0.101,0.142,0.463,0.640,0.506
"Cc1ccc(NC(=O)NCc2cccc(OC3=CC(=O)N(C4CCC(=O)NC4=O)C3=O)c2)cc1Cl (stereo not drawn) [Compound 64, 1-(3-chloro-4-methylphenyl)-3-(3-((1-(2,6-dioxopiperidin-3-yl)-2,5-dioxo-2,5-dihydro-1H-pyrrol-3-yl)oxy)benzyl)urea]",1.087,1.038,1.061,1.154,1.077,1.122,0.030,0.025,0.021
"Cc1ccc(NC(=O)NC(CC(=O)N(C)C)c2cccc(NC3=CC(=O)N(C4CCC(=O)NC4=O)C3=O)c2)cc1Cl (stereo not drawn) [Compound 76, 3-(3-(3-chloro-4-methylphenyl)ureido)-3-(3-((1-(2,6-dioxopiperidin-3-yl)-2,5-dioxo-2,5-dihydro-1H-pyrrol-3-yl)amino)phenyl)-N,N-dimethylpropanamide]",0.027,0.036,0.032,0.103,0.069,0.107,1.961,1.657,1.577
"Cc1cc(CNC(=O)NC(C)c2cccc(NC3=CC(=O)N(C4CCC(=O)NC4=O)C3=O)c2)ccc1Cl (stereo not drawn) [Compound 120, 1-(4-chloro-3-methylbenzyl)-3-(1-(3-((1-(2,6-dioxopiperidin-3-yl)-2,5-dioxo-2,5-dihydro-1H-pyrrol-3-yl)amino)phenyl)ethyl)urea]",0.077,0.117,0.157,0.094,0.110,0.092,1.263,1.011,0.860
"Cc1ccc(NC(=O)OCCc2cccc(NC3=CC(=O)N(C4CCC(=O)NC4=O)C3=O)c2)cc1Cl (stereo not drawn) [Compound 110, 3-((1-(2,6-dioxopiperidin-3-yl)-2,5-dioxo-2,5-dihydro-1H-pyrrol-3-yl)amino)phenethyl (3-chloro-4-methylphenyl)carbamate]",0.048,0.048,0.038,0.096,0.066,0.086,1.017,1.086,0.853
